The record followed here is ChEMBL document CHEMBL6177953, “Discovery of a novel quinoxaline derivative modulator via a dual P53/TLR2 targeting strategy for the alleviation of radiation damage” (Eur J Med Chem, 2025).

The source made the active and inactive calls. No cut-off for these calls is given here. Some results are limits rather than exact numbers.

For orientation: IC50 means the concentration that inhibits the measured activity by half. Low readings indicate higher potency, high ones lower potency.

What all share (format): functional, cell-based
The subject of assay [1] is AHH-1. As to the kind of experiment: Cytotoxicity against human AHH-1 cells incubated for 24 to 96 hrs by CCK-8 assay. In general terms: Tetrazolium dyes change colour on reduction, which living cells bring about.
The test system of assay [2] is AHH-1. As to the kind of experiment: Antiradiation activity in human AHH-1 cells assessed as increase in cell viability at 2.5 to 10 micromol/L pre-treated with compound for 24 hrs followed by irradiation at 4 Gy measured after 24 hrs by CCK-8 assay. Conditions: dose 2.5-10 µmol/L, time 48.0 hrs.
Assay [3] concerns AHH-1. As to the kind of experiment: Antiradiation activity in human AHH-1 cells assessed as increase in cell viability at 2.5 to 10 micromol/L pre-treated with compound for 24 hrs followed by irradiation at 6 Gy measured after 24 hrs by CCK-8 assay. To be noted: dose 2.5-10 µmol/L, time 48.0 hrs.
In assay [4] the test system is AHH-1. The experiment in a line: Antiradiation activity in human AHH-1 cells assessed as increase in cell viability at 2.5 to 10 micromol/L pre-treated with compound for 24 hrs followed by irradiation at 8 Gy measured after 24 hrs by CCK-8 assay. Conditions: dose 2.5-10 µmol/L, time 48.0 hrs.

`[O-][S+](Cc1ccc(Br)cc1)c1cnc2cc(Cl)ccc2n1` (stereo not given) showed an IC50 with AHH-1 [1] of 12.9 µM.
Still for that read-out and setting: as for `O=S(=O)(Cc1ccc(Br)cc1)c1cnc2cc(Br)ccc2n1`, the figure is 21.7 µM.
Same read-out and setting: with `[O-][S+](Cc1ccc(Cl)cc1)c1cnc2cc(Cl)ccc2n1` (stereo not given) the figure was 11.2 µM.
In the assay on AHH-1 [1], `O=S(=O)(Cc1ccc(Cl)cc1)c1cnc2cc(Br)ccc2n1` had an IC50 of more than 60 µM.
Consider `Clc1ccc(CSc2cnc3ccccc3n2)cc1`, for which, in the assay with AHH-1 [1], the IC50 was 16.6 µM. Moreover, the result in the assay with AHH-1 [2], in the assay with AHH-1 [3] and in the assay with AHH-1 [4] was Active.
Compound `O=S(=O)(Cc1ccc(F)cc1)c1cnc2cc(Br)ccc2n1` showed a half-inhibitory concentration (IC50) in the assay with AHH-1 [1] of more than 60 µM.
Same read-out and setting: with `O=S(=O)(Cc1ccc(Cl)cc1)c1cnc2ccccc2n1` the figure was 5.56 µM.
In turn, `O=S(=O)(Cc1ccc(F)cc1)c1cnc2cc(Cl)ccc2n1` showed a half-maximal inhibitory concentration (IC50) in the assay with AHH-1 [1] of 6.32 µM. Further, the result with AHH-1 [2], with AHH-1 [3] and in the assay on AHH-1 [4] was Active.
The compound `Fc1ccc(CSc2cnc3cc(Cl)ccc3n2)cc1` returned a 50% inhibitory concentration (IC50) in the assay with AHH-1 [1] of more than 60 µM.
`N#Cc1ccc(CS(=O)(=O)c2cnc3cc(Cl)ccc3n2)cc1` came in with an IC50 in the assay with AHH-1 [1] of 4.8 µM. Also, the result with AHH-1 [2], in the assay on AHH-1 [3] and with AHH-1 [4] was Active.
`[O-][S+](Cc1ccc(F)cc1)c1cnc2ccccc2n1` (stereo not given): in the assay with AHH-1 [1], the IC50 is more than 60 µM. The result in the assay on AHH-1 [2], in the assay on AHH-1 [3] and in the assay with AHH-1 [4] was Active.
As for `O=C(O)c1ccc(CS(=O)(=O)c2cnc3ccccc3n2)cc1`, the IC50 in the assay on AHH-1 [1] is more than 60 µM. Besides, the outcome with AHH-1 [2], with AHH-1 [3] and with AHH-1 [4] was Active.
In the assay with AHH-1 [1], `[O-][S+](Cc1ccc(F)cc1)c1cnc2cc(Br)ccc2n1` (stereo not given) yielded a half-inhibitory concentration (IC50) of more than 60 µM.
In the assay with AHH-1 [1], `O=S(=O)(Cc1ccc(Br)cc1)c1cnc2ccccc2n1` came in with a half-maximal inhibitory concentration (IC50) of more than 60 µM. The result in the assay with AHH-1 [2], in the assay on AHH-1 [3] and in the assay with AHH-1 [4] was Active.
In the case of `N#Cc1ccc(C[S+]([O-])c2cnc3cc(Cl)ccc3n2)cc1` (stereo not given), 4.59 µM corresponded to half-maximal inhibition with AHH-1 [1] (IC50).
`N#Cc1ccc(CSc2cnc3ccccc3n2)cc1` registered a concentration for half-maximal inhibition (IC50) in the assay on AHH-1 [1] of 17.3 µM. The result in the assay with AHH-1 [2], in the assay on AHH-1 [3] and with AHH-1 [4] was Active.
Regarding `[O-][S+](Cc1ccc(Br)cc1)c1cnc2ccccc2n1` (stereo not given), the 50% inhibitory concentration (IC50) in the assay with AHH-1 [1] was more than 60 µM.
On to `Fc1ccc(CSc2cnc3cc(Br)ccc3n2)cc1`, for which, in the assay with AHH-1 [1], half-maximal inhibition (IC50) was put at 22.2 µM. The result in the assay with AHH-1 [2], with AHH-1 [3] and in the assay on AHH-1 [4] was Active.
`O=C(O)c1ccc(CSc2cnc3cc(Br)ccc3n2)cc1`: in the assay with AHH-1 [1], the IC50 was more than 60 µM. Also, the outcome in the assay with AHH-1 [2], in the assay with AHH-1 [3] and in the assay on AHH-1 [4] was Active.
Consider `Cc1ccc(CSc2cnc3ccccc3n2)cc1`, for which, in the assay on AHH-1 [1], the IC50 was more than 60 µM. The outcome in the assay with AHH-1 [2], with AHH-1 [3] and with AHH-1 [4] was Active.
`Brc1ccc(CSc2cnc3ccccc3n2)cc1` had an IC50 with AHH-1 [1] of 8.9 µM. For the same compound, the result in the assay with AHH-1 [2], in the assay on AHH-1 [3] and in the assay with AHH-1 [4] was Active.
In the assay with AHH-1 [1], `Cc1ccc(CS(=O)(=O)c2cnc3cc(Cl)ccc3n2)cc1` showed an IC50 of 27.7 µM.
`COc1ccc(CSc2cnc3ccccc3n2)cc1` showed a half-maximal inhibitory concentration (IC50) with AHH-1 [1] of more than 60 µM. For the same compound, the outcome with AHH-1 [2], in the assay on AHH-1 [3] and in the assay with AHH-1 [4] was Active.
Take `O=C(O)c1ccc(CSc2cnc3ccccc3n2)cc1`: the concentration for half-maximal inhibition (IC50) with AHH-1 [1] was more than 60 µM. Besides, the outcome with AHH-1 [2], with AHH-1 [3] and in the assay on AHH-1 [4] was Active.
Take `N#Cc1ccc(CSc2cnc3cc(Cl)ccc3n2)cc1`: the IC50 with AHH-1 [1] is more than 60 µM. The result in the assay with AHH-1 [2], with AHH-1 [3] and with AHH-1 [4] was Active.
Take `O=S(=O)(Cc1ccc(Br)cc1)c1cnc2cc(Cl)ccc2n1`: half-maximal inhibition in the assay on AHH-1 [1] (IC50) required 15.5 µM. Besides, the outcome in the assay on AHH-1 [2], with AHH-1 [3] and in the assay on AHH-1 [4] was Active.
Turning to `Cc1ccc(CS(=O)(=O)c2cnc3cc(Br)ccc3n2)cc1`, in the assay with AHH-1 [1], the IC50 is more than 60 µM.
On to `Cc1ccc(CSc2cnc3cc(Cl)ccc3n2)cc1`, for which the half-maximal inhibitory concentration (IC50) with AHH-1 [1] is more than 60 µM. In addition, the outcome with AHH-1 [2], in the assay with AHH-1 [3] and in the assay with AHH-1 [4] was Active.
In the case of `Cc1ccc(C[S+]([O-])c2cnc3cc(Cl)ccc3n2)cc1` (stereo not given), the IC50 in the assay on AHH-1 [1] was 13 µM.
The same measure, in the same setting: as for `Brc1ccc(CSc2cnc3cc(Br)ccc3n2)cc1`, the figure is 4.58 µM.
`Fc1ccc(CSc2cnc3ccccc3n2)cc1` showed an IC50 in the assay with AHH-1 [1] of 58.8 µM. In addition, the outcome with AHH-1 [2], in the assay on AHH-1 [3] and in the assay with AHH-1 [4] was Active.
`Clc1ccc2nc(SCc3ccc(Br)cc3)cnc2c1` showed a 50% inhibitory concentration (IC50) with AHH-1 [1] of more than 60 µM.
On the same count and under the same terms, with `O=S(=O)(Cc1ccc(F)cc1)c1cnc2ccccc2n1` the figure was more than 60 µM; with `[O-][S+](Cc1ccc(F)cc1)c1cnc2cc(Cl)ccc2n1` (stereo not given), 5.23 µM.
Same read-out and setting: as for `Clc1ccc(CSc2cnc3cc(Br)ccc3n2)cc1`, the figure is 3.03 µM.
Still for that read-out and setting: with `O=S(=O)(Cc1ccc(Cl)cc1)c1cnc2cc(Cl)ccc2n1` the figure was 18.6 µM; with `Cc1ccc(CSc2cnc3cc(Br)ccc3n2)cc1`, 11.3 µM.
The compound `O=S(=O)(Cc1ccccc1)c1cnc2cc(Cl)ccc2n1` yielded an IC50 in the assay on AHH-1 [1] of 6.27 µM.
As for `Clc1ccc2nc(SCc3ccccc3)cnc2c1`, the IC50 in the assay with AHH-1 [1] was more than 60 µM. Moreover, the outcome in the assay with AHH-1 [2], in the assay with AHH-1 [3] and in the assay on AHH-1 [4] was Active.
With `Clc1ccc(CSc2cnc3cc(Cl)ccc3n2)cc1`, the concentration for half-maximal inhibition (IC50) in the assay with AHH-1 [1] came to 53.8 µM. Also, the outcome in the assay with AHH-1 [2], in the assay with AHH-1 [3] and in the assay with AHH-1 [4] was Active.
Consider `COc1ccc(CSc2cnc3cc(Cl)ccc3n2)cc1`, for which the IC50 in the assay on AHH-1 [1] was more than 60 µM. Besides, the outcome in the assay on AHH-1 [2], with AHH-1 [3] and in the assay on AHH-1 [4] was Active.
`O=C(O)c1ccc(CSc2cnc3cc(Cl)ccc3n2)cc1` returned a 50% inhibitory concentration (IC50) in the assay with AHH-1 [1] of more than 60 µM. The outcome with AHH-1 [2], in the assay with AHH-1 [3] and in the assay with AHH-1 [4] was Active.
The compound `COc1ccc(CSc2cnc3cc(Br)ccc3n2)cc1` showed an IC50 in the assay with AHH-1 [1] of 39.5 µM. The result with AHH-1 [2], with AHH-1 [3] and in the assay on AHH-1 [4] was Active.
`[O-][S+](Cc1ccccc1)c1cnc2cc(Cl)ccc2n1` (stereo not given): the IC50 in the assay with AHH-1 [1] was 6.28 µM.
